In brackets after ≈: the same amount, converted by molar mass. Where a name gives a salt, the structure may show the parent alone.
Experiments:
E. coli ATCC 8739 = assay: Broth microdilution MIC/MBC on planktonic cells; format: cell-based; details: Escherichia coli, ATCC8739; for MIC: E. coli ATCC 8739, 24 h at 37°C, read-out: MIC; for MBC: E. coli ATCC 8739, read-out: MBC
Description: (§1) Two Gram-positive (S. aureus ATCC 29213 and S. epidermidis ATCC 35984) and two Gram-negative (E. coli ATCC 8739 and P. aeruginosa ATCC 9027) strains, and one fungal strain (C. albicans ATCC 10231) were used for the detection of antibacterial activity of carvacrol, NAC, Ac-Cys(Allyl)-OH, and carvacrol codrugs 1–10. All tested compounds were dissolved in 20% DMSO to prepare the stock solution (100 mg/mL). The final concentration of DMSO in each well appeared to be not toxic for all studied microorganisms, as confirmed by the solvent control test included in the study.
(§2) The effects of carvacrol codrugs 1–10 and reference compounds on planktonic cells were evaluated by Minimum Inhibitory Concentration (MIC) and Minimum Bactericidal Concentration (MBC) determination using the broth microdilution method according to EUCAST guidelines. Bacterial suspensions, grown in Mueller–Hinton Broth (MHB) at logarithmic phase, were incubated on microtiter plates at a concentration of 5 x 10^5 CFU/mL, with several dilutions (0.07–40 mg/mL) for 24 h at 37°C. The MIC was defined as the lowest concentration of substances giving a complete inhibition of visible growth in comparison with a control well, and the MBC was determined as the lowest concentration at which no bacterial growth occurred on Mueller–Hinton Agar plates.
(§3) Data were obtained from at least three independent experiments performed in duplicate. The susceptibility of the bacterial strains against ciprofloxacin was used as an internal standard during MIC determinations.

P. aeruginosa ATCC 9027 = assay: Broth microdilution MIC/MBC on planktonic cells; format: cell-based; details: Pseudomonas aeruginosa, ATCC9027; for MIC: P. aeruginosa ATCC 9027, 24 h at 37°C, read-out: MIC; for MBC: P. aeruginosa ATCC 9027, read-out: MBC
Description: as §1, §2, §3

S. aureus ATCC 29213 = assay: Broth microdilution MIC/MBC on planktonic cells; format: cell-based; details: Staphylococcus aureus, ATCC29213; for MIC: S. aureus ATCC 29213, 24 h at 37°C, read-out: MIC; for MBC: S. aureus ATCC 29213, read-out: MBC
Description: as §1, §2, §3

[1] = system: S. epidermidis ATCC 35984; assay: Broth microdilution MIC/MBC on planktonic cells; format: cell-based; details: Staphylococcus epidermidis, ATCC35984; for MIC: S. epidermidis ATCC 35984, 24 h at 37°C, read-out: MIC; for MBC: S. epidermidis ATCC 35984, read-out: MBC
Description: as §1, §2, §3

C. albicans ATCC 10231 = assay: Broth microdilution MIC/MFC; format: cell-based; details: Candida albicans, ATCC10231; for MIC: C. albicans ATCC 10231, 24–48 h at 37°C, read-out: MIC; for MFC: C. albicans ATCC 10231, read-out: MFC
Description: as §1
The MIC detection of C. albicans ATCC 10231 was performed using the broth microdilution method according to EUCAST guidelines in RPMI 1640 plus 2% glucose with a final inoculum of 1–5 x 10^5 CFU/mL for 24–48 h at 37°C. The Minimum Fungicidal Concentration (MFC) was determined as the lowest concentration of substances at which no fungal growth occurred on Sabouraud agar plates.
as §3

Hemolytic activity = format: cell-based, human; details: human, human red blood cells (h-RBC), 4% suspension, pH 7.3; 4% h-RBC in PBS, 1 h at 37°C, at the compound's MIC values
Description: (§4) Experimental protocols to study hemolysis on human red cells were approved by Ethics Committee of the University “G. d’Annunzio” Chieti-Pescara. Human red cells were from two volunteers, who signed the informed consent for this study.
(§5) Hemolytic activity of carvacrol codrugs 1–10 was tested against human red blood cells (h-RBC). Fresh human blood, collected with EDTA, was centrifuged at 3000 rpm for 5 min then washed three times with PBS pH 7.3. Red blood cells were diluted to 4% in PBS and incubated with different codrugs concentrations ranging from 25 to 0.05 mg/mL. After 1 h of incubation at 37°C, the suspensions were sedimented by centrifugation and the release of hemoglobin was determined by absorbance measurement at 405 nm and compared with a 0% hemolysis control (PBS) and a 100% hemolysis control (PBS with 1% v/v Triton X-100). The percentage of hemolysis was calculated using the following equation: Hemolysis (%) = [(OD405sample - OD4050% lysis control)/(OD405100% lysis control - OD4050% lysis contro)] X 100

[2] = system: human red blood cells (h-RBC); assay: Hemolytic activity; format: cell-based; details: 4% h-RBC, 1 h at 37°C
Description: as §4, §5

Structure (SMILES)	MIC (E. coli ATCC 8739)	MIC (P. aeruginosa ATCC 9027)	MIC (S. aureus ATCC 29213)	MIC [1]	MIC (C. albicans ATCC 10231)	MBC (E. coli ATCC 8739)	MBC (P. aeruginosa ATCC 9027)	MBC (S. aureus ATCC 29213)	MBC [1]	MFC (C. albicans ATCC 10231)	hemolysis at 1 h (Hemolytic activity)	concentration at which hemolytic activity is over 50% [2]	hemolytic activity, maximum at the tested concentrations ([2]; 25 to 0.05 mg/mL)
Cc1ccc(C(C)C)cc1OC(=O)[C@@H]1CSCN1 [codrug 8, TFA·TCA-CAR]	5000 µg/mL	10000 µg/mL	5000 µg/mL	2500 µg/mL	600 µg/mL	5000 µg/mL	10000 µg/mL	10000 µg/mL	5000 µg/mL	600 µg/mL	> 50%	3000 µg/mL	
CC(=O)N[C@@H](CS)C(=O)Oc1cc(C(C)C)ccc1C [codrug 1, NAC-CAR]	10000 µg/mL (≈ 33.9 mM)	10000 µg/mL (≈ 33.9 mM)	10000 µg/mL (≈ 33.9 mM)	5000 µg/mL (≈ 16.9 mM)	300 µg/mL (≈ 1.02 mM)	10000 µg/mL (≈ 33.9 mM)	10000 µg/mL (≈ 33.9 mM)	10000 µg/mL (≈ 33.9 mM)	20000 µg/mL (≈ 67.7 mM)	300 µg/mL (≈ 1.02 mM)			≤ 40%
CSCC[C@H](NC(C)=O)C(=O)Oc1cc(C(C)C)ccc1C [codrug 5, N-Ac-Met-CAR]	10000 µg/mL (≈ 30.9 mM)	5000 µg/mL (≈ 15.5 mM)	10000 µg/mL (≈ 30.9 mM)	10000 µg/mL (≈ 30.9 mM)	5000 µg/mL (≈ 15.5 mM)	10000 µg/mL (≈ 30.9 mM)	10000 µg/mL (≈ 30.9 mM)	10000 µg/mL (≈ 30.9 mM)	10000 µg/mL (≈ 30.9 mM)	5000 µg/mL (≈ 15.5 mM)		over 20 mg/mL	

The next lines start with results.

MIC (E. coli ATCC 8739)	MIC (P. aeruginosa ATCC 9027)	MIC (S. aureus ATCC 29213)	MIC [1]	MIC (C. albicans ATCC 10231)	Structure (SMILES)	MBC (E. coli ATCC 8739)	MBC (P. aeruginosa ATCC 9027)	MBC (S. aureus ATCC 29213)	MBC [1]	MFC (C. albicans ATCC 10231)	hemolysis at 1 h (Hemolytic activity)	concentration at which hemolytic activity is over 50% [2]	hemolytic activity, maximum at the tested concentrations ([2]; 25 to 0.05 mg/mL)
10000 µg/mL (≈ 30 mM)	10000 µg/mL (≈ 30 mM)	10000 µg/mL (≈ 30 mM)	5000 µg/mL (≈ 15 mM)	1250 µg/mL (≈ 3.75 mM)	C#CCSC[C@H](NC(C)=O)C(=O)Oc1cc(C(C)C)ccc1C [codrug 9, N-Ac-Cys(Propargyl)-CAR]	10000 µg/mL (≈ 30 mM)	10000 µg/mL (≈ 30 mM)	10000 µg/mL (≈ 30 mM)	10000 µg/mL (≈ 30 mM)	2500 µg/mL (≈ 7.5 mM)	> 50%	10000 µg/mL	
10000 µg/mL (≈ 32.3 mM)	10000 µg/mL (≈ 32.3 mM)	10000 µg/mL (≈ 32.3 mM)	2500 µg/mL (≈ 8.08 mM)	5000 µg/mL (≈ 16.2 mM)	CSC[C@H](NC(C)=O)C(=O)Oc1cc(C(C)C)ccc1C [codrug 2, N-Ac-Cys(Methyl)-CAR]	10000 µg/mL (≈ 32.3 mM)	10000 µg/mL (≈ 32.3 mM)	10000 µg/mL (≈ 32.3 mM)	10000 µg/mL (≈ 32.3 mM)	5000 µg/mL (≈ 16.2 mM)		over 20 mg/mL	
10000 µg/mL (≈ 30.9 mM)	10000 µg/mL (≈ 30.9 mM)	10000 µg/mL (≈ 30.9 mM)	10000 µg/mL (≈ 30.9 mM)	2500 µg/mL (≈ 7.73 mM)	CCSC[C@H](NC(C)=O)C(=O)Oc1cc(C(C)C)ccc1C [codrug 3, N-Ac-Cys(Ethyl)-CAR]	10000 µg/mL (≈ 30.9 mM)	10000 µg/mL (≈ 30.9 mM)	10000 µg/mL (≈ 30.9 mM)	10000 µg/mL (≈ 30.9 mM)	2500 µg/mL (≈ 7.73 mM)		over 20 mg/mL	

— publication PMC4393269, “Carvacrol Codrugs: A New Approach in the Antimicrobial Plan” (PLoS ONE, 2015)
